The values below come from ChEMBL document CHEMBL4196120, “Inhibition of Connexin Hemichannels by New Amphiphilic Aminoglycosides without Antibiotic Activity” (ACS Med Chem Lett, 2018).

The test system of series [1] is HeLa. In words: Cytotoxicity against human HeLa cells assessed as reduction in cell viability up to 100 ug/ml after 24 hrs by MTT assay. Type of series: cell-based. Background: Tetrazolium dyes change colour on reduction, which living cells bring about.
The target in series [2] is Gap junction beta-2 protein (Homo sapiens) (UniProt P29033). In words: Inhibition of recombinant human Cx26 expressed in Escherichia coli LB2003 assessed as reduction in cell growth at 100 uM measured after 18 hrs.
Series [3] has the same target. Kind of series: Inhibition of recombinant human Cx26 expressed in Escherichia coli LB2003 assessed as reduction in cell growth measured after 18 hrs.
In series [4] the test system is HeLa. Kind of series: Cytotoxicity against human HeLa cells assessed as reduction in cell viability at 100 ug/ml after 24 hrs by MTT assay relative to control. Type of series: cell-based.
The subject of the next series is Cx26. In words: Ratio of compound effect for cytotoxicity against human HeLa cells to IC50 for recombinant human Cx26 expressed in Escherichia coli LB2003. Type of series: toxicity.
A further series relates to Staphylococcus aureus. In words: Toxicity against Staphylococcus aureus ATCC 25923 measured after 18 to 24 hrs. Type of series: organism-based. The settings on record: in vivo.

Values after ≈ are worked out from the molar mass of the structure shown. Active and inactive are the calls of the source. No cut-off for these calls is given here.

As for `CO[C@@H]1[C@@H](O[C@@H]2O[C@H](CO)[C@@H](O)[C@H](N)[C@H]2OC)[C@H](N)C[C@H](N)[C@H]1O[C@H]1O[C@H](CN)[C@@H](OC)[C@H](OC)[C@H]1OC`, the Activity entry in the series on HeLa [1] is recorded as “Non-Toxic”. The inhibition entry in series [2] was “inactive”.
On to `CCCCCCOC[C@H]1O[C@@H](O[C@@H]2[C@@H](O)[C@H](O[C@H]3O[C@H](CN)[C@@H](O)[C@H](O)[C@H]3O)[C@@H](N)C[C@H]2N)[C@H](O)[C@@H](N)[C@@H]1OCCCCCC`, for which, in the series on HeLa [1], the Activity entry is recorded as “Non-Toxic”. Moreover, the Imax in series [3] came to 99%.
In the case of `NC[C@H]1O[C@H](O[C@H]2[C@H](O)[C@@H](O[C@@H]3O[C@H](COCc4ccc5ccccc5c4)[C@@H](OCc4ccc5ccccc5c4)[C@H](N)[C@H]3O)[C@H](N)C[C@@H]2N)[C@H](O)[C@@H](O)[C@@H]1O`, in the series with HeLa [4], the Activity lay within 40 to 60%. Besides, in series [3], the Imax is 94%. In the series on Cx26, the selectivity ratio was not above 20.
On to `CCCCCCCCCOC[C@H]1O[C@@H](O[C@@H]2[C@@H](O)[C@H](O[C@H]3O[C@H](CN)[C@@H](O)[C@H](O)[C@H]3O)[C@@H](N)C[C@H]2N)[C@H](O)[C@@H](N)[C@@H]1OCCCCCCCCC`, for which the Activity result with HeLa [1] is listed as “Non-Toxic”. Besides, the Imax in series [3] was 99%.
Regarding `NC[C@H]1O[C@H](O[C@H]2[C@H](O)[C@@H](O[C@@H]3O[C@H](COCc4ccc(F)cc4)[C@@H](OCc4ccc(F)cc4)[C@H](N)[C@H]3O)[C@H](N)C[C@@H]2N)[C@H](O)[C@@H](O)[C@@H]1O`, in the series on HeLa [4], the Activity was 40 to 60%. The Imax in series [3] was determined as 94%. For the same molecule, in the series on Cx26, the selectivity ratio is not above 20.
Consider `CCCCOC[C@H]1O[C@@H](O[C@@H]2[C@@H](O)[C@H](O[C@H]3O[C@H](CN)[C@@H](O)[C@H](O)[C@H]3O)[C@@H](N)C[C@H]2N)[C@H](O)[C@@H](N)[C@@H]1OCCCC`, for which the Activity result with HeLa [1] is on record as “Non-Toxic”. In series [3], the Imax came out at 99%.
In the case of `NC[C@H]1O[C@H](O[C@H]2[C@H](O)[C@@H](O[C@@H]3O[C@H](COCc4ccccc4)[C@@H](OCc4ccccc4)[C@H](N)[C@H]3O)[C@H](N)C[C@@H]2N)[C@H](O)[C@@H](O)[C@@H]1O`, the Activity entry in the series on HeLa [1] is listed as “Non-Toxic”. Moreover, the Imax in series [3] stood at 99%.
Regarding `NC[C@H]1O[C@H](O[C@H]2[C@H](O)[C@@H](O[C@@H]3O[C@H](COCc4cccc(-c5ccccc5)c4)[C@@H](OCc4cccc(-c5ccccc5)c4)[C@H](N)[C@H]3O)[C@H](N)C[C@@H]2N)[C@H](O)[C@@H](O)[C@@H]1O`, the Activity in the series with HeLa [4] fell in the range of 40 to 60%. The molecule further came in with an MIC in the series with Staphylococcus aureus of 16 µg/mL (≈ 19.6 µM). The Imax in series [3] is 94%. In addition, in the series on Cx26, the selectivity ratio was not above 20.
On to `CCCCCCCCOC[C@H]1O[C@@H](O[C@@H]2[C@@H](O)[C@H](O[C@H]3O[C@H](CN)[C@@H](O)[C@H](O)[C@H]3O)[C@@H](N)C[C@H]2N)[C@H](O)[C@@H](N)[C@@H]1OCCCCCCCC`, for which the Activity entry in the series on HeLa [1] is recorded as “Non-Toxic”. Further, the Imax in series [3] turned out to be 99%.
Take `CO[C@@H]1[C@@H](O[C@@H]2O[C@H](COCc3ccccc3)[C@@H](OCc3ccccc3)[C@H](N)[C@H]2OC)[C@H](N)C[C@H](N)[C@H]1O[C@H]1O[C@H](CN)[C@@H](OC)[C@H](OC)[C@H]1OC`: the Activity entry with HeLa [1] was “Non-Toxic”. Besides, the Imax in series [3] was 99%.
For the molecule `NC[C@H]1O[C@H](O[C@H]2[C@H](O)[C@@H](O[C@@H]3O[C@H](COCc4ccc(Cl)cc4)[C@@H](OCc4ccc(Cl)cc4)[C@H](N)[C@H]3O)[C@H](N)C[C@@H]2N)[C@H](O)[C@@H](O)[C@@H]1O`, the Activity result in the series on HeLa [1] is “Non-Toxic”. Besides, the Imax in series [3] was 94%.
As to `COc1ccc(COC[C@H]2O[C@@H](O[C@@H]3[C@@H](O)[C@H](O[C@H]4O[C@H](CN)[C@@H](O)[C@H](O)[C@H]4O)[C@@H](N)C[C@H]3N)[C@H](O)[C@@H](N)[C@@H]2OCc2ccc(OC)cc2)cc1`, the Activity entry in the series on HeLa [1] is “Non-Toxic”. The Imax in series [3] amounted to 94%.
In the same order, the values of `Cc1ccc(COC[C@H]2O[C@@H](O[C@@H]3[C@@H](O)[C@H](O[C@H]4O[C@H](CN)[C@@H](O)[C@H](O)[C@H]4O)[C@@H](N)C[C@H]3N)[C@H](O)[C@@H](N)[C@@H]2OCc2ccc(C)cc2)cc1` are “Non-Toxic” and 94%.
With `NC[C@H]1O[C@H](O[C@H]2[C@H](O)[C@@H](O[C@@H]3O[C@H](COCc4cccc5ccccc45)[C@@H](OCc4cccc5ccccc45)[C@H](N)[C@H]3O)[C@H](N)C[C@@H]2N)[C@H](O)[C@@H](O)[C@@H]1O`, the Activity entry in the series on HeLa [1] is “Non-Toxic”. The MIC in the series on Staphylococcus aureus is 64 µg/mL (≈ 83.7 µM). Further, the Imax in series [3] was 94%.
As for `CCCCCCO[C@H]1[C@H](N)[C@@H](O)[C@H](O[C@@H]2[C@@H](O)[C@H](O[C@H]3O[C@H](CN)[C@@H](O)[C@H](O)[C@H]3O)[C@@H](N)C[C@H]2N)O[C@@H]1CO`, the Activity entry in the series on HeLa [1] is on record as “Non-Toxic”. The Imax in series [3] came out at 99%.
